# Data as given in patent publication US20150105252A1, “SUBSTITUTED PYRAZOLES AS HERBICIDES” (E I DU PONT DE NEMOURS AND COMPANY, priority 2013, published 2015).
# Columns and labels:
# blackgrass = test: Test D preemergence; assay type: in vivo, Alopecurus myosuroides; conditions: for Plant response rating, Blackgrass: Preemergence, scale 0 to 100
# Text: (§1) Seeds of plant species selected from bluegrass (annual bluegrass, Poa annua), blackgrass (Alopecurus myosuroides), canarygrass (littleseed canarygrass, Phalaris minor), chickweed (common chickweed, Stellaria media), galium (catchweed bedstraw, Galium aparine), bromegrass, downy (downy bromegrass, Bromus tectorum), field poppy (Papaver rhoeas), field violet (Viola arvensis), foxtail, green (green foxtail, Setaria viridis), deadnettle (henbit deadnettle, Lamium amplexicaule), ryegrass, Italian (Italian ryegrass, Lolium multiflorum), kochia (Kochia scoparia), lambsquarters (Chenopodium album), oilseed rape (Brassica napus), pigweed (redroot pigweed, Amaranthus retroflexus), chamomile (scentless chamomile, Matricaria inodora), speedwell (bird's-eye speedwell, Veronica persica), barley, spring (spring barley, Hordeum vulgare), wheat, spring (spring wheat, Triticum aestivum), buckwheat, wild (wild buckwheat, Polygonum convolvulus), mustard, wild (wild mustard, Sinapis arvensis), oat, wild (wild oat, Avena fatua), radish, wild (wild radish, Raphanus raphanistrum), windgrass (Apera spica-venti), Russian thistle (Salsola kali), barley, winter (winter barley, Hordeum vulgare), and wheat, winter (winter wheat, Triticum aestivum) were planted into a silt loam soil and treated preemergence with test chemicals formulated in a non-phytotoxic solvent mixture which included a surfactant.
# (§2) At the same time, these species were planted in pots containing Redi-Earth® planting medium (Scotts Company, 14111 Scottslawn Road, Marysville, Ohio 43041) comprising spaghnum peat moss, vermiculite, wetting agent and starter nutrients and treated with postemergence applications of the test chemicals formulated in the same manner. Plants ranged in height from 2 to 18 cm (1- to 4-leaf stage). Treated plants and controls were maintained in a controlled growth environment for 14 to 21 days after which time all species were compared to controls and visually evaluated. Plant response ratings, summarized in Table D, are based on a scale of 0 to 100 where 0 is no effect and 100 is complete control. A dash (-) response means no test result.
# chickweed = test: Test D preemergence; assay type: in vivo, Stellaria media; conditions: Preemergence, scale 0 to 100
# Summary of the method: (§3)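 Whole-plant herbicidal activity; pre- and postemergence sprays. Soil: silt loam (pre); peat/vermiculite medium (post, 1–4 leaf). Assessment: 14–21 days, visual, 0 = no effect, 100 = complete control.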
# pigweed [1] = test: Test D preemergence; assay type: in vivo, Amaranthus retroflexus; conditions: for Plant response rating, Pigweed: Preemergence, scale 0 to 100
# Text: as §1, §2
# chamomile [2] = test: Test D preemergence; assay type: in vivo, Matricaria inodora; conditions: for Plant response rating, Chamomile: Preemergence, scale 0 to 100
# Summary of the method: as §3
# speedwell = test: Test D preemergence; assay type: in vivo, Veronica persica; conditions: for Plant response rating, Speedwell: Preemergence, scale 0 to 100
# Text: as §1, §2
# barley, spring = test: Test D preemergence; assay type: in vivo, Hordeum vulgare; conditions: for Plant response rating, Barley, Spring: Preemergence, scale 0 to 100
# Summary of the method: as §3
# barley, winter = test: Test D preemergence; assay type: in vivo, Hordeum vulgare; conditions: for Plant response rating, Barley, Winter: Preemergence, scale 0 to 100
# Summary of the method: as §3
# oat, wild = test: Test D preemergence; assay type: in vivo, Avena fatua; conditions: for Plant response rating, Oat, Wild: Preemergence, scale 0 to 100
# Summary of the method: as §3
# radish, wild = test: Test D preemergence; assay type: in vivo, Raphanus raphanistrum; conditions: Preemergence, scale 0 to 100
# Summary of the method: as §3
# galium = test: Test D postemergence; assay type: in vivo, Galium aparine; conditions: scale 0 to 100
# Summary of the method: as §3
# field violet = test: Test D postemergence; assay type: in vivo, Viola arvensis; conditions: scale 0 to 100
# Text: as §1, §2
# pigweed [3] = test: Test D postemergence; assay type: in vivo, Amaranthus retroflexus; conditions: scale 0 to 100
# Summary of the method: as §3
# chamomile [4] = test: Test D postemergence; assay type: in vivo, Matricaria inodora; conditions: scale 0 to 100
# Summary of the method: as §3
# windgrass = test: Test D postemergence; assay type: in vivo, Apera spica-venti; conditions: scale 0 to 100
# Text: as §1, §2
# [5] = 16 g ai/ha, taken as preemergence
smiles,measurement,setting,value
CCCc1cc(C(=O)NC2CC2)nn1Cc1cc(C(F)(F)F)nn1C [Compound 202],"Plant response rating, Blackgrass",blackgrass; 31 g ai/ha,5
same,"Plant response rating, Blackgrass",blackgrass; 62 g ai/ha,35
same,"Plant response rating, Blackgrass",blackgrass; 125 g ai/ha,75
same,"Plant response rating, Blackgrass",blackgrass; 250 g ai/ha,80
same,"Plant response rating, Chickweed",chickweed; 31 g ai/ha,100
same,"Plant response rating, Chickweed",chickweed; 62 g ai/ha,100
same,"Plant response rating, Chickweed",chickweed; 125 g ai/ha,100
same,"Plant response rating, Chickweed",chickweed; 250 g ai/ha,100
same,"Plant response rating, Pigweed",pigweed [1]; 62 g ai/ha,100
same,"Plant response rating, Pigweed",pigweed [1]; 125 g ai/ha,100
same,"Plant response rating, Pigweed",pigweed [1]; 250 g ai/ha,100
same,"Plant response rating, Chamomile",chamomile [2]; 31 g ai/ha,5
same,"Plant response rating, Chamomile",chamomile [2]; 62 g ai/ha,100
same,"Plant response rating, Chamomile",chamomile [2]; 125 g ai/ha,100
same,"Plant response rating, Chamomile",chamomile [2]; 250 g ai/ha,100
same,"Plant response rating, Speedwell",speedwell; 62 g ai/ha,100
same,"Plant response rating, Speedwell",speedwell; 125 g ai/ha,100
same,"Plant response rating, Speedwell",speedwell; 250 g ai/ha,100
same,"Plant response rating, Barley, Spring","barley, spring; 31 g ai/ha",0
same,"Plant response rating, Barley, Spring","barley, spring; 62 g ai/ha",0
same,"Plant response rating, Barley, Spring","barley, spring; 125 g ai/ha",55
same,"Plant response rating, Barley, Spring","barley, spring; 250 g ai/ha",65
same,"Plant response rating, Barley, Winter","barley, winter; 31 g ai/ha",0
same,"Plant response rating, Barley, Winter","barley, winter; 62 g ai/ha",0
same,"Plant response rating, Barley, Winter","barley, winter; 125 g ai/ha",25
same,"Plant response rating, Barley, Winter","barley, winter; 250 g ai/ha",45
same,"Plant response rating, Oat, Wild","oat, wild; 62 g ai/ha",15
same,"Plant response rating, Oat, Wild","oat, wild; 125 g ai/ha",65
same,"Plant response rating, Oat, Wild","oat, wild; 250 g ai/ha",100
same,"Plant response rating, Radish, Wild","radish, wild; 62 g ai/ha",100
same,"Plant response rating, Radish, Wild","radish, wild; 125 g ai/ha",100
same,"Plant response rating, Radish, Wild","radish, wild; 250 g ai/ha",100
same,Galium plant response rating,"galium; Postemergence, 31 g ai/ha",70
same,Galium plant response rating,"galium; Postemergence, 125 g ai/ha",70
same,Galium plant response rating,"galium; Postemergence, 250 g ai/ha",75
same,Galium plant response rating,"galium; postemergence, 62 g ai/ha",70
same,Field Violet plant response rating,"field violet; Postemergence, 31 g ai/ha",25
same,Field Violet plant response rating,"field violet; Postemergence, 125 g ai/ha",45
same,Field Violet plant response rating,"field violet; Postemergence, 250 g ai/ha",50
same,Field Violet plant response rating,"field violet; postemergence, 62 g ai/ha",25
same,Pigweed plant response rating,"pigweed [3]; Postemergence, 31 g ai/ha",70
same,Pigweed plant response rating,"pigweed [3]; Postemergence, 125 g ai/ha",80
same,Pigweed plant response rating,"pigweed [3]; Postemergence, 250 g ai/ha",85
same,Pigweed plant response rating,"pigweed [3]; postemergence, 62 g ai/ha",70
same,Chamomile plant response rating,"chamomile [4]; Postemergence, 31 g ai/ha",55
same,Chamomile plant response rating,"chamomile [4]; Postemergence, 125 g ai/ha",60
same,Chamomile plant response rating,"chamomile [4]; Postemergence, 250 g ai/ha",65
same,Chamomile plant response rating,"chamomile [4]; postemergence, 62 g ai/ha",55
same,Windgrass plant response rating,"windgrass; Postemergence, 31 g ai/ha",15
same,Windgrass plant response rating,"windgrass; Postemergence, 125 g ai/ha",25
same,Windgrass plant response rating,"windgrass; Postemergence, 250 g ai/ha",35
same,Windgrass plant response rating,"windgrass; postemergence, 62 g ai/ha",15
CCc1cc(C(=O)NC2CC2)nn1Cc1ccnc(C(F)(F)F)c1 [Compound 76],"Plant response rating (scale 0 to 100), Blackgrass",blackgrass; [5],20
same,"Plant response rating, Blackgrass",blackgrass; 31 g ai/ha,50
same,"Plant response rating, Blackgrass",blackgrass; 62 g ai/ha,100
same,"Plant response rating, Blackgrass",blackgrass; 125 g ai/ha,100
same,"Plant response rating, Blackgrass",blackgrass; 250 g ai/ha,100
same,"Plant response rating (scale 0 to 100), Pigweed",pigweed [1]; [5],10
same,"Plant response rating, Pigweed",pigweed [1]; 31 g ai/ha,60
same,"Plant response rating, Pigweed",pigweed [1]; 62 g ai/ha,80
same,"Plant response rating, Pigweed",pigweed [1]; 125 g ai/ha,100
same,"Plant response rating, Pigweed",pigweed [1]; 250 g ai/ha,100
same,"Plant response rating (scale 0 to 100), Chamomile",chamomile [2]; [5],50
same,"Plant response rating, Chamomile",chamomile [2]; 31 g ai/ha,80
same,"Plant response rating, Chamomile",chamomile [2]; 62 g ai/ha,95
same,"Plant response rating, Chamomile",chamomile [2]; 125 g ai/ha,100
same,"Plant response rating, Chamomile",chamomile [2]; 250 g ai/ha,100
same,"Plant response rating (scale 0 to 100), Speedwell",speedwell; [5],100
same,"Plant response rating, Speedwell",speedwell; 31 g ai/ha,100
same,"Plant response rating, Speedwell",speedwell; 62 g ai/ha,100
same,"Plant response rating, Speedwell",speedwell; 125 g ai/ha,100
same,"Plant response rating, Speedwell",speedwell; 250 g ai/ha,100
same,"Plant response rating (scale 0 to 100), Barley, Spring","barley, spring; 16 g ai/ha, taken as preemergence, 0 = no effect, 100 = complete control",0
same,"Plant response rating, Barley, Spring","barley, spring; 31 g ai/ha",0
same,"Plant response rating, Barley, Spring","barley, spring; 62 g ai/ha",10
same,"Plant response rating, Barley, Spring","barley, spring; 125 g ai/ha",65
same,"Plant response rating, Barley, Spring","barley, spring; 250 g ai/ha",75
same,"Plant response rating (scale 0 to 100), Barley, Winter","barley, winter; [5]",0
same,"Plant response rating, Barley, Winter","barley, winter; 31 g ai/ha",0
same,"Plant response rating, Barley, Winter","barley, winter; 62 g ai/ha",15
same,"Plant response rating, Barley, Winter","barley, winter; 125 g ai/ha",60
same,"Plant response rating, Barley, Winter","barley, winter; 250 g ai/ha",75
same,"Plant response rating (scale 0 to 100), Oat, Wild","oat, wild; [5]",0
same,"Plant response rating, Oat, Wild","oat, wild; 31 g ai/ha",10
same,"Plant response rating, Oat, Wild","oat, wild; 62 g ai/ha",35
same,"Plant response rating, Oat, Wild","oat, wild; 125 g ai/ha",90
same,"Plant response rating, Oat, Wild","oat, wild; 250 g ai/ha",100
same,"Plant response rating, Radish, Wild","radish, wild; 31 g ai/ha",75
same,"Plant response rating, Radish, Wild","radish, wild; 62 g ai/ha",100
same,"Plant response rating, Radish, Wild","radish, wild; 125 g ai/ha",100
same,"Plant response rating, Radish, Wild","radish, wild; 250 g ai/ha",100
same,"Plant response rating, Galium","galium; Postemergence, 16 g ai/ha",55
same,Galium plant response rating,"galium; Postemergence, 31 g ai/ha",70
same,Galium plant response rating,"galium; Postemergence, 125 g ai/ha",75
same,Galium plant response rating,"galium; Postemergence, 250 g ai/ha",95
same,Galium plant response rating,"galium; postemergence, 62 g ai/ha",75
same,"Plant response rating, Field Violet","field violet; Postemergence, 16 g ai/ha",10
same,Field Violet plant response rating,"field violet; Postemergence, 31 g ai/ha",15
same,Field Violet plant response rating,"field violet; Postemergence, 125 g ai/ha",70
same,Field Violet plant response rating,"field violet; Postemergence, 250 g ai/ha",85
same,Field Violet plant response rating,"field violet; postemergence, 62 g ai/ha",20
same,"Plant response rating, Pigweed","pigweed [3]; Postemergence, 16 g ai/ha",50
same,Pigweed plant response rating,"pigweed [3]; Postemergence, 31 g ai/ha",55
same,Pigweed plant response rating,"pigweed [3]; Postemergence, 125 g ai/ha",80
same,Pigweed plant response rating,"pigweed [3]; Postemergence, 250 g ai/ha",80
same,Pigweed plant response rating,"pigweed [3]; postemergence, 62 g ai/ha",65
same,"Plant response rating, Chamomile","chamomile [4]; Postemergence, 16 g ai/ha",10
same,Chamomile plant response rating,"chamomile [4]; Postemergence, 31 g ai/ha",25
same,Chamomile plant response rating,"chamomile [4]; Postemergence, 125 g ai/ha",50
same,Chamomile plant response rating,"chamomile [4]; Postemergence, 250 g ai/ha",55
same,Chamomile plant response rating,"chamomile [4]; postemergence, 62 g ai/ha",30
same,"Plant response rating, Windgrass","windgrass; Postemergence, 16 g ai/ha",5
same,Windgrass plant response rating,"windgrass; Postemergence, 31 g ai/ha",5
same,Windgrass plant response rating,"windgrass; Postemergence, 125 g ai/ha",10
same,Windgrass plant response rating,"windgrass; Postemergence, 250 g ai/ha",15
same,Windgrass plant response rating,"windgrass; postemergence, 62 g ai/ha",10
